Measurements: patent US6440978B2, “Therapeutic agent for dermatitis” (Nippon Zoki Pharmaceutical Co., Ltd., priority 2000, dated 2002)
Blank lines part the entries; values can stand above or below the compound they belong to.

Columns and labels:
[1] = test system: antigen-induced swelling reaction in a mouse ear; assay: Suppressive action against antigen-induced swelling reaction in a mouse ear; assay type: in vivo, BALB/c female mice
Experimental: (§1) Seven week old BALB/c female (SPF) mice of were selected as subjects. According to a method of Tanaka, et al. (Allergy, 46, pages 42-48(1997)), egg white albumin (final concentration: 2 μg/mL) and aluminum hydroxide gel (final concentration: 10 mg/mL) were suspended in physiological saline and 0.5 mL of the suspension was administered to effect intraperitoneal sensitization on the first day of the test. On the 14th day of the test, an additional sensitization was carried out under the same conditions. Further, on the 28th day of the test, 25 μL of egg albumin (a 20 μg/mL solution in physiological saline) was intradermally administered to the right ear of a mouse to induce a swelling reaction.
(§2) This swelling reaction reached its peak at 4 hours after the challenge by the antigen. Even after 24 to 48 hours, a significant swelling reaction was noted as compared with the control in which antigen was merely challenged (not sensitized). […] On the contrary, the swelling from 24 to 48 hours after the challenge is thought to be the so-called delayed-type swelling reaction accompanied by infiltration of eosinophils, neutrophils and lymphocytes. In addition, a flare-up reaction having a peak at 24 hours after the challenge appeared on the ear of the antigen-induced site. Like swelling, flare-up is an important symptom of inflammation. Although the mechanism of the flare-up reaction is ambiguous, it may be a flare-up reaction of a delayed type in view of the time course of its expression. As such, this model animal in which the inflammation of both immediate and delayed types are induced is appropriate as a model animal for atopic dermatitis. In the following experiment, the effectiveness of the therapeutic agent for dermatitis according to the present invention was tested using the said model animal.
Each of a vehicle (control) and a test agent (containing the compound of the present invention or a positive control) was applied to the antigen-induced site (right auricle) of a mouse. A swelling reaction was induced in accordance with Example 2 at 2 hours before and 4 hours after the challenge. After the challenge, the thickness of the swelling induced ear was measured by a Dial Thickness Gauge (manufactured by Ozaki Seisakusho). The intensity of the reaction was expressed in terms of an increase in the auricle thickness by deducting the thickness (early value) measured before the challenge from the thickness of the swelling induced ear. The suppression rate of the test drug for ear swelling was calculated by the following formula:
Suppression Rate (%)=100 ×[(Ear Thickness Increase of Vehicle-Only-Control)—(Ear Thickness Increase of the Test Group)]/[(Ear Thickness Increase of the Vehicle-Only-Control)—(Ear Thickness Increase of the Challenge-Only-Group)]

[2] = test system: antigen-induced flare-up reaction in a mouse; assay: Suppressive action against antigen-induced flare-up reaction in a mouse; assay type: in vivo, BALB/c female mice; conditions: 0.12% ointment
Experimental: as §1, §2
Each of a vehicle (control) and an agent for the test (the therapeutic agent for dermatitis according to the present invention or a positive control) was applied to the antigen-induced site (right auricle) of a mouse to induce a swelling reaction in accordance with Example 2 at 2 hours before and 4 hours after the challenge. The right ear was observed by naked eye and the degree of flare-up was scored according to the following standard:
1: in such a degree that a flare-up was confirmed, the color is clear red or pale red and the size was small
2: between score 3 and score 1
3: color of the flare-up was clearly red and the size of the flare-up was big

[3] = test system: ear of a normal mouse; assay: Influence of repeated application on the ear thickness of a normal mouse; assay type: in vivo
Experimental: The therapeutic agent for dermatitis according to the present invention or the positive control (steroid preparation) was applied twice daily to the right ear of a normal mouse for a total of nine times and, 2 hours after the final application, the thickness of the ear was measured.

[4] = Table 2, 1% ointment, 24 hr after challenge
[5] = Table 2, 3% ointment, 24 hr after challenge
[6] = Table 1, 0.12% ointment, 1 hr after challenge
[7] = Table 1, 0.12% ointment, 8 hr after challenge
[8] = Table 1, 0.12% ointment, 24 hr after challenge
[9] = Table 1, 0.12% ointment, 48 hr after challenge
[10] = Table 2, 0.12% ointment, 24 hr after challenge

SMILES: Nc1ccc2c(=O)n(Cc3ccccc3Cl)c(=O)n(-c3ccccc3)c2n1 [Compound 2, 7-amino-3-(2-chlorobenzyl)-1,2,3,4-tetrahydro-1-phenylpyrido[2,3-d]pyrimidin-2,4-dione]
- Ear Thickness Increase at 4 hr after Challenge ([1]; Table 2, 1% ointment): 19.5 ± 3.2 × 0.01 mm
- Suppression Rate of ear thickness increase at 4 hr after Challenge ([1]; Table 2, 1% ointment): (22.2%)
- Ear Thickess Increase at 24 hr after Challenge [1, 4]: 11.8 ± 2.6 × 0.01 mm
- Suppression Rate of ear thickness increase at 24 hr after Challenge [1, 4]: (30.3%)
- Ear Thickness Increase at 4 hr after Challenge ([1]; Table 2, 3% ointment): 19.3 ± 2.4 × 0.01 mm
- Suppression Rate of ear thickness increase at 4 hr after Challenge ([1]; Table 2, 3% ointment): (23.1%)
- Ear Thickess Increase at 24 hr after Challenge [1, 5]: 8.0 ± 1.4 × 0.01 mm
- Suppression Rate of ear thickness increase at 24 hr after Challenge [1, 5]: (54.8%)

- Ear Thickness ([3]; 0.12% ointment applied twice daily, nine times in total, 2 hours after final application): 18.3 ± 0.5 × 0.01 mm
SMILES: CCCCC(=O)O[C@]1(C(=O)CO)[C@@H](C)C[C@H]2[C@@H]3CCC4=CC(=O)C=C[C@]4(C)[C@@]3(F)[C@@H](O)C[C@@]21C [Positive Control, betamethasone valerate, reference compound]
- Ear Thickness Increase at 1 hr after Challenge [1, 6]: 8.3 ± 0.7 × 0.01 mm
- Suppression Rate of ear thickness increase at 1 hr after Challenge [1, 6]: (45.5%)
- Ear Thickness Increase at 4 hr after Challenge ([1]; Table 1, 0.12% ointment): 16.3 ± 2.0 × 0.01 mm
- Suppression Rate of ear thickness increase at 4 hr after Challenge ([1]; Table 1, 0.12% ointment): (42.0%)
- Ear Thickness Increase at 8 hr after Challenge [1, 7]: 2.0 ± 1.2 × 0.01 mm
- Suppression Rate of ear thickness increase at 8 hr after Challenge [1, 7]: (49.7%)
- Ear Thickness Increase at 24 hr after Challenge [1, 8]: 5.0 ± 1.0 × 0.01 mm
- Suppression Rate of ear thickness increase at 24 hr after Challenge [1, 8]: (80.0%)
- Ear Thickness Increase at 48 hr after Challenge [1, 9]: 2.0 ± 1.0 × 0.01 mm
- Suppression Rate of ear thickness increase at 48 hr after Challenge [1, 9]: (100.0%)
- Ear Thickness Increase at 4 hr after Challenge ([1]; Table 2, 0.12% ointment): 11.0 ± 0.6 × 0.01 mm
- Suppression Rate of ear thickness increase at 4 hr after Challenge ([1]; Table 2, 0.12% ointment): (60.0%)
- Ear Thickess Increase at 24 hr after Challenge [1, 10]: 6.3 ± 2.4 × 0.01 mm
- Suppression Rate of ear thickness increase at 24 hr after Challenge [1, 10]: (65.8%)
- Suppression Rate of flare-up score at 4 hr after Challenge ([2]; 4 hr after challenge): (25.0%)
- Flare-up Score at 4 hr after Challenge ([2]; 4 hr after challenge, score 0-3): 0.6 ± 0
- Suppression Rate of flare-up score at 24 hr after Challenge ([2]; 24 hr after challenge): (40.0%)
- Flare-up Score at 24 hr after Challenge ([2]; 24 hr after challenge, score 0-3): 1.5 ± 0.2
- influence of repeated application on auricle thickness ([3]; positive control ointment, repeated application): significantly reduced the auricle thickness
